Key:
[1] = target: Metabotropic glutamate receptor 5 (Rattus norvegicus, UniProt P31424); assay: Metabotropic glutamate receptor 5 agonist activity as basal [3H]- IP formation in rat; assay type: functional
[2] = target: Metabotropic glutamate receptor 2 (Rattus norvegicus, UniProt P31421); assay: Metabotropic glutamate receptor 2 agonist activity against forskolin stimulated c-AMP formation in rat non neuronal cells; assay type: functional, cell-based
[3] = target: Metabotropic glutamate receptor 1 (Rattus norvegicus, UniProt P23385); assay: Metabotropic glutamate receptor 1 agonist activity as basal [3H]- IP formation in rat; assay type: functional
[4] = target: T1, Metabotropic glutamate receptor 8 (Rattus norvegicus, UniProt P70579); assay: Metabotropic glutamate receptor 8 antagonist activity to influence forskolin stimulated c-AMP formation in rat non neuronal cells; assay type: functional, cell-based
[5] = target: T2, Metabotropic glutamate receptor 4 (Rattus norvegicus, UniProt P31423); assay: Metabotropic glutamate receptor 4 antagonist activity to influence forskolin stimulated c-AMP formation in rat non neuronal cells; assay type: functional, cell-based
[6] = target: Metabotropic glutamate receptor 3 (Rattus norvegicus, UniProt P31422); assay: Metabotropic glutamate receptor 3 agonist activity against forskolin stimulated c-AMP formation in rat non neuronal cells; assay type: functional, cell-based
[7] = target: T3, Metabotropic glutamate receptor 7 (Rattus norvegicus, UniProt P35400); assay: Metabotropic glutamate receptor 7 antagonist activity to influence forskolin stimulated c-AMP formation in rat non neuronal cells; assay type: functional, cell-based
[8] = target: T4, Metabotropic glutamate receptor 6 (Rattus norvegicus, UniProt P35349); assay: Metabotropic glutamate receptor 6 antagonist activity to influence forskolin stimulated c-AMP formation in rat non neuronal cells; assay type: functional, cell-based
[9] = target: T1, Metabotropic glutamate receptor 8; assay: Metabotropic glutamate receptor 8 agonist activity against forskolin stimulated c-AMP formation in rat non neuronal cells; assay type: functional, cell-based
[10] = target: T2, Metabotropic glutamate receptor 4; assay: Metabotropic glutamate receptor 4 agonist activity to influence forskolin stimulated c-AMP formation in rat non neuronal cells; assay type: functional, cell-based
[11] = target: T4, Metabotropic glutamate receptor 6; assay: Metabotropic glutamate receptor 6 agonist activity to influence forskolin stimulated c-AMP formation in rat non neuronal cells; assay type: functional, cell-based
[12] = target: T3, Metabotropic glutamate receptor 7; assay: Metabotropic glutamate receptor 7 agonist activity to influence forskolin stimulated c-AMP formation in rat non neuronal cells; assay type: functional, cell-based

T2 sequence (P31423 whole entry): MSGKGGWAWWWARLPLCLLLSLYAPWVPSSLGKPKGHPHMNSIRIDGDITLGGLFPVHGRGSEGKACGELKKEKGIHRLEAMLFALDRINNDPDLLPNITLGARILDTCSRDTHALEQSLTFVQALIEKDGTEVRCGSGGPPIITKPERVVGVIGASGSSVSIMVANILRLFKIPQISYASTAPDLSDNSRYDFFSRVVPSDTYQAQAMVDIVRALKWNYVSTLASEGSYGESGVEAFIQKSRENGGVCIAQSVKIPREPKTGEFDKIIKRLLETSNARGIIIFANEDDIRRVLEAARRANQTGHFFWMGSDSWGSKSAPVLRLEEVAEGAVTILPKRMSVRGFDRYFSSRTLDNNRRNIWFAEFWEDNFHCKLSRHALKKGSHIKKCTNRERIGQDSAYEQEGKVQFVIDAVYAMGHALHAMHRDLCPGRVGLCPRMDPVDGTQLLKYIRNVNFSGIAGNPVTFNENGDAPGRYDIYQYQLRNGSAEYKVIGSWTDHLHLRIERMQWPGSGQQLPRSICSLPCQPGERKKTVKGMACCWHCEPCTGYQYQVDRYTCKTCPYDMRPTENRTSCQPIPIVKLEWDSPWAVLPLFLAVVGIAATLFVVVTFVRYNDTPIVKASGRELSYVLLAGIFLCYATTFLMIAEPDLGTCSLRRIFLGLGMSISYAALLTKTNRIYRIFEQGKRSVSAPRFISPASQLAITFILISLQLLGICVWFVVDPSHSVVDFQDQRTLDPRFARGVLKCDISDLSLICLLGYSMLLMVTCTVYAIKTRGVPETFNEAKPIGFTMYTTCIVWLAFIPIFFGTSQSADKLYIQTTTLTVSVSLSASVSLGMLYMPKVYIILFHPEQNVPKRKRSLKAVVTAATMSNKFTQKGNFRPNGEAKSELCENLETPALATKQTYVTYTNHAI
Sequence of Metabotropic glutamate receptor 3 (P31422 whole entry): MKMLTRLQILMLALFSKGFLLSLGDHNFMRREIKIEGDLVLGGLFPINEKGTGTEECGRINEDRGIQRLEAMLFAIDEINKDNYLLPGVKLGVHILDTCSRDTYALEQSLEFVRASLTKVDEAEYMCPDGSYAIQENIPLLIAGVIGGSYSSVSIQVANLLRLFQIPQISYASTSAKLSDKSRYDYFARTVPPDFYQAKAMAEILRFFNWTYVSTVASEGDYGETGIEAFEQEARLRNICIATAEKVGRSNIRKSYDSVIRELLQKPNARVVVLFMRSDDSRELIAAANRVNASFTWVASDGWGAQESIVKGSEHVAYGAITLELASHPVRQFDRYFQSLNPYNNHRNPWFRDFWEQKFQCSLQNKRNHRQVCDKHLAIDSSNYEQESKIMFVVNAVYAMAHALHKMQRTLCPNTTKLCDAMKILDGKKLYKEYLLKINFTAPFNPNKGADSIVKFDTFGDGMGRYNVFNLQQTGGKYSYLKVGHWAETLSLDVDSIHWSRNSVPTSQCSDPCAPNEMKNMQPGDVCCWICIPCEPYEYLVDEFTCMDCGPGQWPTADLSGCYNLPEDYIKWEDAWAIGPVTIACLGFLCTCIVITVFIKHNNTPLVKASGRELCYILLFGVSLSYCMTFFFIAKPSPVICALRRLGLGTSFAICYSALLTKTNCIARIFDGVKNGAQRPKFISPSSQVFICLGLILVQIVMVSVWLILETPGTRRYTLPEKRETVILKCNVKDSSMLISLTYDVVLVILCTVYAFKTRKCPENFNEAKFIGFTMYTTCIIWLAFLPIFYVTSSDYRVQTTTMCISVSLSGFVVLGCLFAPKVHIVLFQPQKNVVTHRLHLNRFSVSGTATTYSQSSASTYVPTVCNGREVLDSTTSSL
T1 sequence (P70579 whole entry): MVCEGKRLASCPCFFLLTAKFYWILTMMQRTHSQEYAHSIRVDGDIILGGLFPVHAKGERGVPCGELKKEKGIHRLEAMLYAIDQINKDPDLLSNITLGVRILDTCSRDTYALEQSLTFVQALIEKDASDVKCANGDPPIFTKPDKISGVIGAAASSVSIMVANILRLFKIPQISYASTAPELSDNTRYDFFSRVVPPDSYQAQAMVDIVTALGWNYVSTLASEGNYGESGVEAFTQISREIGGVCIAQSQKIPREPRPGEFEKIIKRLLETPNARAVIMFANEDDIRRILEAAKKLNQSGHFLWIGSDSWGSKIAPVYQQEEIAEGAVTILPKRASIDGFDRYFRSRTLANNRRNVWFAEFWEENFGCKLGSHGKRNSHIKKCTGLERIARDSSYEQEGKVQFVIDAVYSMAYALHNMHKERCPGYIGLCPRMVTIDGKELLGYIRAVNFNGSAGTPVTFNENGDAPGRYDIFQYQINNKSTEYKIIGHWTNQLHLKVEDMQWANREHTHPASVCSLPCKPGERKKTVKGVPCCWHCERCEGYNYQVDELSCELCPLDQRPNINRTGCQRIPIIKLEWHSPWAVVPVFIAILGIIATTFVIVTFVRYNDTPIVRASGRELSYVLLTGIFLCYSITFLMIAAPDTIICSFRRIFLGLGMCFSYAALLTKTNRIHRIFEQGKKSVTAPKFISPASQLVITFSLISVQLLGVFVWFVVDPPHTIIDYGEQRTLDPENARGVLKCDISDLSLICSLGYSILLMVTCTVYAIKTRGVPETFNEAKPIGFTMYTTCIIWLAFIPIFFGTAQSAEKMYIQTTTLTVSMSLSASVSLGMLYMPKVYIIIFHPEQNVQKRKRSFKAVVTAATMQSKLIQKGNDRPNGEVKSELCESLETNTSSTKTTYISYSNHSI
T3 sequence (P35400 whole entry): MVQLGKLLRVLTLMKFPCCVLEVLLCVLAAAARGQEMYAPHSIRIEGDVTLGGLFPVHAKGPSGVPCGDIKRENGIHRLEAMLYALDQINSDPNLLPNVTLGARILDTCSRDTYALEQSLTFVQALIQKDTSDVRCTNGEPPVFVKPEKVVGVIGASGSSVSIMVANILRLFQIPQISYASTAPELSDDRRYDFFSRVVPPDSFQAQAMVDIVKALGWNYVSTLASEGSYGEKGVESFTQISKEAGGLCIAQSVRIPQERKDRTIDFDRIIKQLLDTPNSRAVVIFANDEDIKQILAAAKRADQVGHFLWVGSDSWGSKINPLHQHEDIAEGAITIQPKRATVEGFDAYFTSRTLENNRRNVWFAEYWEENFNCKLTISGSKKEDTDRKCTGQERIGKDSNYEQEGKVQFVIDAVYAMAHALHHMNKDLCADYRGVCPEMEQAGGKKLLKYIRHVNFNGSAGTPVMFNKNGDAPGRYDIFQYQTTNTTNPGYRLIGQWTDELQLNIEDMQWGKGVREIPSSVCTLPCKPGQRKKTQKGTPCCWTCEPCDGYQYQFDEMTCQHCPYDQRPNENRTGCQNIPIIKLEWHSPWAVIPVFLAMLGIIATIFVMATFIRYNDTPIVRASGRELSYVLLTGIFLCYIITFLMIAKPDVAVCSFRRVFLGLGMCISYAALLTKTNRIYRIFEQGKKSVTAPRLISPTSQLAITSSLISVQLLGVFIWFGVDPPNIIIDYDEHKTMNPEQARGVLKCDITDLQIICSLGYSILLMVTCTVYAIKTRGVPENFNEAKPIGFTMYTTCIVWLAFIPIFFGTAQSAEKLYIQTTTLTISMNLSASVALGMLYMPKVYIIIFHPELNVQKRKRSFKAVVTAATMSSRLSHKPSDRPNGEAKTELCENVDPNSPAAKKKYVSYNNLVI
Sequence of Metabotropic glutamate receptor 5 (P31424 whole entry): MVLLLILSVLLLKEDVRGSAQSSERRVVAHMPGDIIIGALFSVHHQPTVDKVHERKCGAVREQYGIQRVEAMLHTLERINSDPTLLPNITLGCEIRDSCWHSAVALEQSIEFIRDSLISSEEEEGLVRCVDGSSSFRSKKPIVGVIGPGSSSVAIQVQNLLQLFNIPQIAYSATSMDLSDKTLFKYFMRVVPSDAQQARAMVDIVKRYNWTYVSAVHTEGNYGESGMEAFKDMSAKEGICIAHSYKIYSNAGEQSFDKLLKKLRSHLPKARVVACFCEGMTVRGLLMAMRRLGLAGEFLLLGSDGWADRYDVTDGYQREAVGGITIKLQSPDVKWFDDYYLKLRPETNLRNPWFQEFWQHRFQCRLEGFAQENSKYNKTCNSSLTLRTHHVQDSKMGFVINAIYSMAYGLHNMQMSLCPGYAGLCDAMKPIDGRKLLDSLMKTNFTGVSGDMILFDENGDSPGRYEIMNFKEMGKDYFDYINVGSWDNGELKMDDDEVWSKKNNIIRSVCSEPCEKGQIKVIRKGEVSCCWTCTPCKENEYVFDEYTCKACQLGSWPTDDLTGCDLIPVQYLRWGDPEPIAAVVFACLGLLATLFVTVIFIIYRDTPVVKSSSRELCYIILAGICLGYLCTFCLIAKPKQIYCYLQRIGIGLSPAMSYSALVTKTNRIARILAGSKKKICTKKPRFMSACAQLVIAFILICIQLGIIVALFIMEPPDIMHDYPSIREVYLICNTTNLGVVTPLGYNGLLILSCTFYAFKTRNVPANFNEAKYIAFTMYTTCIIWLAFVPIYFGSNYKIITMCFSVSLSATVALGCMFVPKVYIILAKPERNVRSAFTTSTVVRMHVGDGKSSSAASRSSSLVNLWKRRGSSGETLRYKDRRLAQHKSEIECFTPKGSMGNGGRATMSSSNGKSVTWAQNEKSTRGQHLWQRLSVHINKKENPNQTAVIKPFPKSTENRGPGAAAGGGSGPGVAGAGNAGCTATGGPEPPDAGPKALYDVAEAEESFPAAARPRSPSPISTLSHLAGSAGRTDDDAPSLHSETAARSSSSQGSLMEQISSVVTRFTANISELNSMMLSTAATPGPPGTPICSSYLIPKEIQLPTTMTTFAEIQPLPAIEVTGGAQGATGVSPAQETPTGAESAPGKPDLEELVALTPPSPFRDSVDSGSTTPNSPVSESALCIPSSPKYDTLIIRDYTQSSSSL

Row | EC50 [4] | EC50 [5] | EC50 [7] | EC50 [8] | SMILES | EC50 [1] | EC50 [2] | EC50 [3] | EC50 [6] | EC50 [9] | EC50 [10] | EC50 [11] | EC50 [12]
1 |  |  |  |  | N[C@H](C(=O)O)[C@H]1[C@H](CC(=O)O)[C@@H]1C(=O)O | > 100 µM | 0.3 µM | > 100 µM |  |  |  |  | 
2 |  |  |  |  | N[C@H](C(=O)O)[C@@H]1[C@@H](C(=O)O)C1(F)F |  | 0.09 µM |  |  |  |  |  | 
3 | 32 µM | 23 µM | 40 µM | 40 µM | N[C@H](C(=O)O)C1[C@@H](C(=O)O)[C@@H]1C(=O)O (some centres undefined) | 389 µM |  | > 100 µM | 0.2 µM |  |  |  | 
4 |  |  |  |  | N[C@H](C(=O)O)c1ccc(C(=O)O)c(C(=O)O)c1 | > 100 µM | > 100 µM | 32 µM | > 100 µM | 0.031 µM | 8.8 µM | 3.6 µM | > 100 µM
5 |  |  |  |  | N[C@H](C(=O)O)[C@H]1C[C@@H]1C(=O)O | 17 µM | 0.3 µM | 23 µM | 0.6 µM | 0.4 µM | 4 µM | 0.6 µM | 47 µM
6 |  |  |  |  | N[C@H](C(=O)O)[C@H]1[C@@H](CC(=O)O)[C@@H]1C(=O)O | > 100 µM | 0.1 µM | > 100 µM |  |  |  |  | 
7 |  |  |  |  | C[C@H]1[C@H](C(=O)O)[C@H]1[C@H](N)C(=O)O | > 100 µM | 0.008 µM | > 100 µM | 0.038 µM | 1.32 µM | > 100 µM | 1.2 µM | > 100 µM
8 |  |  |  |  | N[C@@H](CCP(=O)(O)O)C(=O)O | > 100 µM | 448 µM | > 100 µM | > 100 µM | 0.06 µM | 0.32 µM | 0.055 µM | 175 µM
9 |  |  |  |  | NC(C(=O)O)c1ccc(P(=O)(O)O)cc1 (racemic) | > 500 µM | > 300 µM | > 500 µM | > 200 µM | 0.21 µM | 5.2 µM | 4.7 µM | 185 µM

— ChEMBL document CHEMBL1148386, “(2S,1'S,2'R,3'R)-2-(2'-Carboxy-3'-hydroxymethylcyclopropyl) glycine is a highly potent group 2 and 3 metabotropic glutamate receptor agonist with oral activity” (J Med Chem, 2004)
